Values after ≈ are worked out from the molar mass of the structure shown.
Legend:
[1] = Kinetic solubility in PBS pH 7.4, HPLC-UV (Example 21, Table 27); type: physicochemical; conditions: phosphate buffered saline, aqueous buffer, kinetic from dmso stock, 0.5 M PBS, shaken minimum 24 h at approximately 25° C., HPLC-UV 270 nm
Method in brief: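 10 mM DMSO stock diluted into 0.05 M PBS pH 7.4 (5% DMSO final), in triplicate, shaken ≥24 h at ~25 °C, then filtered by centrifugation. Supernatant concentration by HPLC-UV at 270 nm against external DMSO standards (15.6–500.0 μM).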

[2] = biological target: T1, human C5 complement protein (Homo sapiens, UniProt P01031); test: Surface plasmon resonance (SPR), immobilized human C5, 37° C. (Example 27, Table 31); type: binding; conditions: lowest value obtained where a range of concentrations was analyzed (Table 31)
Human C5 [3] = biological target: T2, Human C5 (Homo sapiens, UniProt P01031); test: Red blood cell (RBC) hemolysis assay, luminescent (Example 28, Table 32); type: cell-based; conditions: sheep EA cells, 1.5% C5-depleted human serum, 0.5 nM human C5, 1 hour at 37° C., luminescence (Table 32)
T2 construct: purchased Complement Technology
Protocol: Sheep red blood cells coated with rabbit anti-sheep erythrocyte antiserum (EA cells; Complement Technology, Tyler, Tex.) were used to assay compound inhibitory activity of the classical complement activation pathway. Briefly, the EA cells were washed once and resuspended in the same volume of GVB++ buffer (Complement Technology, Tyler, Tex.). 25 μL of EA cells were then distributed into each well of 384-well tissue culture plates using Apricot iPipette Pro (Apricot Designs; Covina, Calif.). Compounds were tested in 10 points of final concentrations ranging from 16.67 μM to 1.65 μM in a 6-fold titration series. Compounds were dispensed into 384-well plates from 6.7 mM and 3.35 μM DMSO working stocks using an HP Digital Dispenser (HP; Corvallis, Oreg.). The reactions also contained 1.5% (v/v) C5-depleted human serum (Complement Technology). Hemolysis was induced by addition of human C5 (Complement Technology) at a concentration of 0.5 nM and plates were incubated for 1 hour at 37° C. in a cell culture incubator. The extent of hemolysis was measured by ability of released hemoglobin to catalyze luminol in the presence of hydrogen peroxide. Luminescence was then measured using a plate reader. Luminescence measurements were used to prepare a dose-response curve. From the curve, the half maximal inhibitory concentration (IC50) for each compound was determined, where the IC50 represents the concentration of each compound needed to reduce red blood cell hemolysis by half.

[4] = biological target: T1, human C5 complement protein; test: Surface plasmon resonance (SPR), immobilized human C5, 37° C. (Example 18, Table 24); type: binding; conditions: lowest value obtained where a range of concentrations was analyzed
[5] = Permeability assay, unidirectional transport, Papp (Example 30, Table 34); type: in vitro ADME, canine; conditions: dog, pH 7.4; MDCK-WT cell monolayers, A-to-B, 3 μM test compound, 37° C., duplicate determinations
Protocol: Permeability assays were carried out to provide a preliminary indication of suitability for oral dosing and compound permeability across the blood brain barrier. Unidirectional and bidirectional compound transport across Madin Darby canine kidney (MDCK) cell monolayers was assessed. For unidirectional transport assessment, transport across MDCK wild type (MDCK-WT) cell monolayers was assessed. For bidirectional transport, transport across MDCK-MDR1 cell monolayers was assessed. MDCK-MDR1 cells express the MDR1 gene encoding the P-glycoprotein (P-gp) efflux protein.
MDCK-WT and MDCK-MDR1 cells were plated onto permeable polycarbonate supports in 12-well Costar transwell plates and allowed to grow and differentiate for 3 days. After 3 days in culture, the culture medium (DMEM supplemented with 10% FBS) was removed from both sides of the transwell inserts and cells were rinsed with warm HBSS. After the rinse step, the chambers were filled with warm transport buffer (HBSS containing 10 mM HEPES, 0.25% BSA, pH 7.4) and the plates were pre-incubated at 37° C. for 30 minutes prior to TEER (Trans Epithelial Electric Resistance) measurements.
The buffer in the donor chamber (apical side for A-to-B assay, basolateral side for B-to-A assay) was removed and replaced with the working solution (3 μM test compound and 10 μM for control compounds in transport buffer). The plates were then placed at 37° C. under light agitation. At designated time points (30, 60 and 90 min), an aliquot of transport buffer from the receiver chamber was removed and replenished with fresh transport buffer. Samples were quenched with ice-cold ACN containing internal standard and then centrifuged to pellet protein. Resulting supernatants were further diluted with 50/50 ACN/H2O (Atenolol diluted in just water) and submitted for LC-MS/MS analysis. Apparent permeability (Pap) values were calculated from duplicate determinations. Atenolol and propranolol were tested as low and […] permeability references.
Papp values indicate extent of compound permeation across monolayers.

Human C5 [6] = biological target: T2, Human C5; test: Red blood cell (RBC) hemolysis assay, luminescent (Example 13, Table 22); type: cell-based; conditions: sheep EA cells, […] C5-depleted human serum, 0.5 nM human C5, 1 hour 37° C., luminescence
Description: Compound CU0136 is a racemic mixture of Compound CU0186 and CU0187. Numbers in parenthesis following compound numbers indicate alternate enantiomers (as distinguished by retention time during chromatographical separation).

T1 sequence (P01031 19-1676): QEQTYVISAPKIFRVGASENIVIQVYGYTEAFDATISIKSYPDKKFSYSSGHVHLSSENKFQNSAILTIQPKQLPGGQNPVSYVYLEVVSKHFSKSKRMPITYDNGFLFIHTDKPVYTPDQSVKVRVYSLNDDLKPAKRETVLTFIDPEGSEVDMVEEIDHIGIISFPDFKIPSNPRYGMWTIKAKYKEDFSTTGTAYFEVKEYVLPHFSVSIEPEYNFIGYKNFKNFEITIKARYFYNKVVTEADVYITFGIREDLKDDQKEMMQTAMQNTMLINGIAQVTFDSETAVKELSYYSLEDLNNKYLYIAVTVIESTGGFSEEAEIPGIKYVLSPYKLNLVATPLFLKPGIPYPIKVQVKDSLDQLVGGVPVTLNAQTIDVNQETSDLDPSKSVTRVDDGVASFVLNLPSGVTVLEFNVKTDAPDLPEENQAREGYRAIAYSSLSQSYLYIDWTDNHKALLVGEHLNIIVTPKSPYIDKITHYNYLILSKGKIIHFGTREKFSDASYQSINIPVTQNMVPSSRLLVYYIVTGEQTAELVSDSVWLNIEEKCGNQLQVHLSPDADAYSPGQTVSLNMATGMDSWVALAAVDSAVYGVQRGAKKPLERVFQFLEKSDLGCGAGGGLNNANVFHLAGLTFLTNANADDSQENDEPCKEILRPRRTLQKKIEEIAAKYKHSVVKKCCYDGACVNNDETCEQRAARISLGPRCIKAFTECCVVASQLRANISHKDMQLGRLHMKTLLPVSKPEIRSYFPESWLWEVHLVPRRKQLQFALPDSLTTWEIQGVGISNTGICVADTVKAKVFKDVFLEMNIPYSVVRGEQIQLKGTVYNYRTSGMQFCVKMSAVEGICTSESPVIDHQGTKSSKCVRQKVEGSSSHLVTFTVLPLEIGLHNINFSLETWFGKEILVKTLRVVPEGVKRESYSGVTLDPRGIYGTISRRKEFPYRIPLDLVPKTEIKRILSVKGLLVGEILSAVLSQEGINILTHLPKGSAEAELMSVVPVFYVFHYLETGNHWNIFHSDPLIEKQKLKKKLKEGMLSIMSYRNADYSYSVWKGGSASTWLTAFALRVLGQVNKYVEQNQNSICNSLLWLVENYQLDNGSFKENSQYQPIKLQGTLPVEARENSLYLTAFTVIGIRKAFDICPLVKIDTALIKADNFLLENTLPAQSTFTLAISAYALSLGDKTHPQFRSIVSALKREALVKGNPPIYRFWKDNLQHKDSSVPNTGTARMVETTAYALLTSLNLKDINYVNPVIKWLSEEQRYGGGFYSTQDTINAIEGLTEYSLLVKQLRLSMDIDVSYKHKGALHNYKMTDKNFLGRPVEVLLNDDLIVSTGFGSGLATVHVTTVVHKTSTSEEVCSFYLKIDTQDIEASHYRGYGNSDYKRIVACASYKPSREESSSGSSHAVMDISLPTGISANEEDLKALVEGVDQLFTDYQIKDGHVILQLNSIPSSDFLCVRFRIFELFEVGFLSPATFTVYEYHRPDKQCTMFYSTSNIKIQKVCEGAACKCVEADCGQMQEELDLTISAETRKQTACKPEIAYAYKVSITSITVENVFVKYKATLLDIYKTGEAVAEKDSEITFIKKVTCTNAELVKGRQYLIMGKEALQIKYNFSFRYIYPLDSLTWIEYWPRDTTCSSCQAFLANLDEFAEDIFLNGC
T2 sequence (P01031 19-1676): as above

SMILES	solubility kinetic [1]	Kd [2]	IC50 (Human C5 [3])	Kd [4]	Papp A→B at 3 μM [5]	IC50 (Human C5 [6])
CCCCCOc1cc(N2CC[C@H](C)N(Cc3cccc4[nH]cc(C)c34)C2=O)ccc1OC [SC0148]	< 10 µM	0.92 nM	2.2 nM			
CCCCCOc1cc(N2CC[C@H](C)N(Cc3ccnc4c3c(Cl)cn4CC(=O)N3CCNC(=O)C3)C2=O)ccc1OC [SC0106]	119 µM (≈ 72.7 µg/mL)	0.08 nM	1.1 nM			
CCCCCOc1cc(N2CCCN(Cc3ccnc4c3c(Cl)cn4CC(=O)N3CCO[C@H](CN(C)C)C3)C2=O)ccc1OC [CU0533]	294 µM (≈ 189 µg/mL)			0.056 nM	1.7 ×10⁻⁶ cm/s	
CCN1CC[C@H](N(C)C(=O)Cc2ccc(CN3C(=O)N(c4ccc(OC)c(OCCCC5CC5)c4)CC[C@@H]3C)c(OC)c2)C1 [SC0149]			2.2 nM		3.5 ×10⁻⁶ cm/s	
COc1ccc(N2CC[C@H](C)N(Cc3cccc4c3ccn4CC(=O)N(C)C)C2=O)cc1OCCCC1CC1 [SC0174]	40 µM (≈ 21.3 µg/mL)	0.78 nM	4.3 nM			
COc1ccc(N2CC[C@H](C)N(Cc3cccc4c3c(Cl)cn4CC(=O)N(C)C)C2=O)cc1OCCCC1CCC1 [SC0125]		0.09 nM	1.6 nM			
CCCCCOc1cc(N2CC[C@H](C)N(Cc3cccc4c3ccn4CC(=O)N3CCO[C@@H](CN(C)C)C3)C2=O)ccc1OC [SC0171]	356 µM (≈ 221 µg/mL)		3.7 nM		2 ×10⁻⁶ cm/s	
CCCCCOc1cc(N2CCCN(Cc3ccc(CC(=O)N4CCOC(CN(C)C)C4)cc3OC)C2=O)ccc1OC (racemic) [CU0136]	479 µM (≈ 286 µg/mL)				2.4 ×10⁻⁶ cm/s	12.5 nM
CCCCCOc1cc(N2CC(CO)CN(Cc3ccc(CNC(=O)c4cocn4)cc3OC)C2=O)ccc1OC (stereo not drawn) [SC0104]	< 10 µM	0.89 nM	1.1 nM			
COc1cc(Cc2ccncn2)ccc1CN1C(=O)N(c2ccc(OC)c(OCCCC3CC3)c2)CC[C@@H]1C [SC0102]			0.9 nM		18.2 ×10⁻⁶ cm/s	
CCCCCOc1cc(N2CC(CO)CN(Cc3ccc(CC(=O)N4CCOCC4)cc3OC)C2=O)ccc1OC (stereo not drawn) [SC0183]	> 500 µM	3.88 nM	5.3 nM			
CCCCCOc1cc(N2CC(C)CN(Cc3ccc(CNC(=O)c4cnco4)cc3OC)C2=O)ccc1OC (stereo not drawn) [SC0159]		0.4 nM	2.7 nM			
COc1ccc(N2CC[C@H](C)N(Cc3cccc4c3c(Cl)cn4CC(=O)N(C)C)C2=O)cc1OCCCC1CC1 [SC0116]	< 10 µM	0.02 nM	1.4 nM			
CCCCCOc1cc(N2CC[C@H](C)N(Cc3cccc4c3c(Cl)cn4CC(=O)N3CCCOCC3)C2=O)ccc1OC [SC0128]	< 10 µM	0.02 nM	1.7 nM			
CCCCCOc1cc(N2CC[C@H](C)N(Cc3cccc4c3c(C)cn4CC(=O)N(C)C3CCN(CC)C3)C2=O)ccc1OC (stereo partly drawn) [SC0105]	399 µM (≈ 247 µg/mL)	0.08 nM	1.1 nM			
CCCCCOc1cc(N2CC[C@H](C)N(Cc3cccc4c3ccn4CC(=O)N3CCO[C@H](CN(C)C)C3)C2=O)ccc1OC [SC0177]	309 µM (≈ 192 µg/mL)		4.7 nM		1.3 ×10⁻⁶ cm/s	
CCCCCOc1cc(N2CC[C@H](C)N(Cc3ccnc4c3c(Cl)cn4CC(=O)N3CCC3)C2=O)ccc1OC [SC0122]	81 µM (≈ 46 µg/mL)	0.22 nM	1.5 nM			
CCCCCOc1cc(N2CC(CO)CN(Cc3ccc(CC(=O)N4CCCOCC4)cc3OC)C2=O)ccc1OC (stereo not drawn) [SC0190]		2.8 nM	7.1 nM			
CCCCCOc1cc(N2CC[C@H](C)N(Cc3ccnc4c3c(Cl)cn4CC(=O)N3CCOC(CN(C)C)C3)C2=O)ccc1OC (stereo partly drawn) [SC0156]	348 µM (≈ 228 µg/mL)		2.6 nM		1.3 ×10⁻⁶ cm/s	
CCCCCOc1cc(N2CC[C@H](C)N(Cc3ccnc4c3c(Cl)cn4CC(=O)N3CC(N(C)C)C3)C2=O)ccc1OC [SC0155]			2.6 nM		9.9 ×10⁻⁶ cm/s	
COc1cc(CC(=O)N2CCO[C@H](CN(C)C)C2)ccc1CN1C(=O)N(c2ccc(OC)c(OCCCC3CC3)c2)CC[C@@H]1C [SC0134]	266 µM (≈ 166 µg/mL)		1.8 nM		2.2 ×10⁻⁶ cm/s	

SMILES	solubility kinetic [1]	Kd [2]	IC50 (Human C5 [3])	Kd [4]	Papp A→B at 3 μM [5]	IC50 (Human C5 [6])
COc1cc(CC(=O)N[C@H]2CCNC2)ccc1CN1C(=O)N(c2ccc(OC)c(OCCCC3CC3)c2)CC[C@@H]1C [SC0114]	252 µM (≈ 142 µg/mL)		1.3 nM		0.1 ×10⁻⁶ cm/s	
CCCCCOc1cc(N2CC(CO)CN(Cc3ccc(CC(=O)N(C)C)cc3OC)C2=O)ccc1OC (stereo not drawn) [SC0172]	490 µM (≈ 259 µg/mL)	2.25 nM	3.8 nM			
CCCCCOc1cc(N2CC[C@H](C)N(Cc3cccc4c3c(Cl)cn4CC3=NCCN3C)C2=O)ccc1OC [SC0169]			3.5 nM		1.8 ×10⁻⁶ cm/s	
COc1cc(CC(N)=O)ccc1CN1CC(C)CN(c2ccc(OC)c(OCCCC3CC3)c2)C1=O (stereo not drawn) [SC0179]		0.88 nM	4.9 nM			
CCCCCOc1cc(N2CC(CO)CN(Cc3ccc(CC(=O)N4CCCC4)cc3OC)C2=O)ccc1OC (stereo not drawn) [SC0184]	411 µM (≈ 228 µg/mL)	2.94 nM	5.7 nM			
CCCCCOc1cc(N2CC[C@H](C)N(Cc3ccnc4c3c(Cl)cn4CC(=O)N[C@H]3CCN(C)C3)C2=O)ccc1OC [SC0147]			2.2 nM		0.7 ×10⁻⁶ cm/s	
CCCCCOc1cc(N2CC[C@H](C)N(Cc3ccnc4c3c(Cl)cn4CC(=O)N3CC(C)(O)C3)C2=O)ccc1OC [SC0111]			1.3 nM		2.5 ×10⁻⁶ cm/s	
COc1cc(CC(=O)N2CCO[C@@H](CN(C)C)C2)ccc1CN1C(=O)N(c2ccc(OC)c(OCCCC3CC3)c2)CC[C@@H]1C [SC0146]	486 µM (≈ 303 µg/mL)		2.1 nM		2.6 ×10⁻⁶ cm/s	
CCCCCOc1cc(N2CC(C)CN(Cc3ccc(CNC(=O)c4cocn4)cc3OC)C2=O)ccc1OC (stereo not drawn) [SC0170]		0.77 nM	3.7 nM			
COc1cc(CC(=O)N2CCOCC2)ccc1CN1CCCN(c2ccc(OC)c(OCCCC3CC3)c2)C1=O [CU0511]	310 µM (≈ 171 µg/mL)			0.47 nM	16.6 ×10⁻⁶ cm/s	
CCCCCOc1cc(N2CC[C@H](C)N(Cc3ccnc4c3c(Cl)cn4CC(=O)N3CC(N4CCOCC4)C3)C2=O)ccc1OC [SC0117]			1.4 nM		12.6 ×10⁻⁶ cm/s	
CCCCCOc1cc(N2CC[C@H](C)N(Cc3cccc4c3ccn4CC(=O)N(C)CC#N)C2=O)ccc1OC [SC0168]		0.79 nM	3.3 nM			
CCCCCOc1cc(N2CCCN(Cc3ccnc4c3c(Cl)cn4CC(=O)N3CCOCC3)C2=O)ccc1OC [CU0526]	< 10 µM			0.052 nM	16.8 ×10⁻⁶ cm/s	
COc1cc(CC(=O)N[C@H]2CN(C)C[C@H]2F)ccc1CN1C(=O)N(c2ccc(OC)c(OCCCC3CC3)c2)CC[C@@H]1C [SC0123]			1.5 nM		4.8 ×10⁻⁶ cm/s	
CCN1CC[C@@H](N(C)C(=O)Cc2ccc(CN3C(=O)N(c4ccc(OC)c(OCCCC5CC5)c4)CC[C@@H]3C)c(OC)c2)C1 [SC0144]			2.1 nM		3 ×10⁻⁶ cm/s	
COc1ccc(N2CCCN(Cc3ccnc4c3c(Cl)cn4CC(=O)N3CCOC(CN(C)C)C3)C2=O)cc1OCCCC1CC1 (stereo not drawn) [CU0523]	486 µM (≈ 317 µg/mL)				0.7 ×10⁻⁶ cm/s	
CCCCCOc1cc(N2CCCN(Cc3ccnc4c3c(Cl)cn4CC(=O)N3CC(O)C3)C2=O)ccc1OC [CU0518]	47 µM (≈ 26.8 µg/mL)			0.82 nM	1.1 ×10⁻⁶ cm/s	
CCCCCOc1cc(N2CCCN(Cc3ccnc4c3c(Cl)cn4CC(=O)N3CC[C@@H](OC)C3)C2=O)ccc1OC [CU0534]	85 µM (≈ 50.8 µg/mL)			0.363 nM	17.4 ×10⁻⁶ cm/s	
COc1cc(CC(=O)N2CC[C@H](N(C)C)C2)ccc1CN1C(=O)N(c2ccc(OC)c(OCCCC3CC3)c2)CC[C@@H]1C [SC0101]			0.9 nM		4.7 ×10⁻⁶ cm/s	
COc1ccc(N2CC[C@H](C)N(Cc3cccc4c3ccn4CC(=O)N3CCOCC3)C2=O)cc1OCCCC1CC1 [SC0164]	426 µM (≈ 245 µg/mL)		2.9 nM		14.3 ×10⁻⁶ cm/s	
CCCCCOc1cc(N2CC(C)CN(Cc3ccc(CC(=O)N4CCCOCC4)cc3OC)C2=O)ccc1OC (stereo not drawn) [SC0186]		1.85 nM	5.8 nM			

Source: patent US20230115176A1 (Ra Pharmaceuticals, Inc., priority 2019, published 2023)
